Data: patent US12115172B2, “Sulfate-free cleansing composition that confers high salicylic acid deposition” (L'OREAL, priority 2021, dated 2024)

Test: HLB value of the surfactant
Assay type: physicochemical
Settings: of the 30% anionic surfactant used in the composition
From the text: The term “Hydrophilic-Lipophilic Balance” or “HLB,” refers to an empirical expression for the relationship of the hydrophilic and hydrophobic groups of an emulsifier. This term is well known to those skilled in the art. See, e.g., “The HLB system.

Compound	HLB VALUE
SODIUM COCOYL GLYCINATE	14
SODIUM LAUROYL SARCOSINATE	29.8
DECYL GLUCOSIDE (APGS)	13
CCCCCCCCCCCCOS(=O)(=O)[O-].[Na+] [SODIUM LAURYL SULFATE]	40.1
